Source: US7566453B2, “Methods for treating melanomas” (Chugai Seiyaku Kabushiki Kaisha, priority 1998, dated 2009)
“And” between values parts separate entries of the source, which are not always exact repeats. Equal values may be shown once.

Experiments:
[1] = biological target: T1, human IL-6 receptor (Homo sapiens, UniProt P08887); assay: ELISA of binding to human IL-6 receptor
T1 sequence (P08887 20-468): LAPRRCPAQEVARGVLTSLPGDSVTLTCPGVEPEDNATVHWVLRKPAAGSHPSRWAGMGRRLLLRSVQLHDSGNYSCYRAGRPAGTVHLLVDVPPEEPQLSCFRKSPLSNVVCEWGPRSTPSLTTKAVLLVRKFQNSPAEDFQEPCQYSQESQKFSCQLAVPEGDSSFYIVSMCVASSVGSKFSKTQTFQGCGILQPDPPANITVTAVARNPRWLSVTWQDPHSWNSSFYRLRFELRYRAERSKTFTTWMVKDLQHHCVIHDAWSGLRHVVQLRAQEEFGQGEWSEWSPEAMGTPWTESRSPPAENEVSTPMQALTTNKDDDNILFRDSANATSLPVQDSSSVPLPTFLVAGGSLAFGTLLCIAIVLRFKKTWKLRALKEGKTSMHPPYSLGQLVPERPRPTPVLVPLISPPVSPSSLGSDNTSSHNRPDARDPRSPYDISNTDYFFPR
Text: In order to express genes of L chain and H chain of the reshaped human PM-1 antibody thus constructed, DNA encoding the L chain or the H chain was separately inserted into a vector containing the human elongation factor 1α (HEF-1α) promoter, and a vector expressing the L chain or the H chain of the reshaped human PM-1 (hPM-1) antibody was constructed. By simultaneously inserting these two expression vectors into CHO cells, a cell line that produces reshaped human PM-1 antibody (hPM-1) was established.

[2] = test system: KPMM2 cells
Method: The effects of anti-human IL-6 receptor antibody on sensitivity of KPMM2 cells to chemotherapeutic agents used for treatment of myeloma such as adriamycin (ADR, manufactured by Kyowa Hakko), vincristine (VCR, manufactured by Sigma Chemical Co.), and melphalan (L-PAM, manufactured by Sigma Chemical Co.) were evaluated.
KPMM2 is a multiple myeloma cell line derived from the ascites of a human patient with myeloma (see Japanese Unexamined Patent Publication (Kokai) No. 7-236475). […] The growth activity of the cell was evaluated by incorporation of ^3H-labeled thymidine (manufactured by Amersham) into the cell.
The KPMM2 cells that had been maintained were washed thoroughly with a fresh medium (RPMI1640 medium supplemented with 20% FBS), and then were adjusted to 4×10^5/ml, which was dispensed in 50 μl aliquots in a 96-well flat-bottomed microtiter plate (manufactured by Falcon). Furthermore, a medium containing a recombinant human IL-6 (Asagoe, Y. et al., Bio/Technology (1988) 6, 806-809), anti-human IL-6 receptor antibody hPM-1 (see the above reference example 1 or International Patent Application WO 92-15759), and the above chemotherapeutic agents or a fresh medium as control were added to make 200 μl in each well.
The plate was incubated at 37° C. for 4 days under the humidified condition in the presence of 5% CO2. At four hours before the end of incubation, 10 μl of ^3H-labeled thymidine solution (100 μCi/ml) was added to each well, and then incubated for more 4 hours. At the end of incubation, the cells were collected onto the glass filter (manufactured by Printed Filtermat A, WALLAC) using a harvester (Micro 96 Harvester, manufactured by SKATRON Instruments). The radioactivity incorporated into the cells was measured by a microbeta (1450 MicroBeta, manufactured by WALLAC).
The activity of growth inhibition on KPMM2 was expressed using the effect by a chemotherapeutic agent alone as the control. Using the incorporation of ^3H-labeled thymidine into the cell for each experimental group in which a each concentration of a chemotherapeutic agent was added as 100, the amount of ^3H-labeled thymidine incorporated into the cell in an experimental group in which anti-human IL-6 receptor antibody was simultaneously added was compared as an index.

[3] = Body weight change (toxicity) of myeloma-implanted mice, Example 2; format: in vivo, SCID mouse; details: melphalan administration (FIG. 10)
Text: For evaluation of antitumor activity, a xenograft model was used. Thus, KPMM2, a human myeloma cell line derived from ascites of a patient with multiple myeloma was implanted to a male SCID mouse (FOX CHASE C. B17/Icr-Scid Jcl, purchased from Nippon Klea) via the tail vein. At this time, the tumor cells grow in the bone marrow and come to produce myeloma protein (M protein) in the peripheral blood. Furthermore, this model system is very close to an actual clinical condition in that it develops major symptoms of multiple myeloma in humans such as bone disorders, elevated blood calcium, and the like.
With regard to anti-human IL-6 receptor antibody, a stock solution that had been preserved at 12.1 mg/ml was diluted in sterile phosphate buffer to make 5 mg/ml. This was given to mice at 0.2 ml per animal via the tail vein on day 8 (1 mg per mouse). The control group received sterile phosphate buffer containing no antibody in a similar manner.
Melphalan (L-PAM, manufactured by Sigma Chemical Co.) that was suspended at 0.3 or 0.1 mg/ml in 0.2% CMC (carboxymethylcellulose) solution in water was used. This was given orally at 0.1 ml per 10 g body weight of mouse (3 or 1 mg/kg weight) for 5 consecutive days starting on day 1. The control group received 0.2% CMC solution in water containing no melphalan in a similar manner. […]

Compound | ability to bind to human IL-6 receptor [1] | growth index (3H-thymidine incorporation, chemotherapeutic agent alone = 100) [2] | relationship of growth index with the concentration of chemotherapeutic agent ([2]; fixed concentration of anti-human IL-6 receptor antibody, 0.1 or 1 ng/ml IL-6 (FIG. 1 to 6)) | toxicity (inhibition of body weight gain) [3]
hPM-1: reshaped human PM-1 antibody: CDRs of mouse anti-IL-6 receptor antibody PM-1 grafted to human antibody, produced in CHO cells | confirmed by ELISA | 33.9 and 28.4 |  | 
NC(Cc1ccc(N(CCCl)CCCl)cc1)C(=O)O (stereo not shown) [melphalan] |  |  | decreased with the increase in melphalan concentration | caused toxicity in mice and inhibited body weight gain
